Here are results for one compound from publication PMC5218480 (PLoS ONE, 2017).

The subject of this test is MV-4-11 cells. The test can be described thus: Gene expression microarray analysis (Affymetrix PrimeView) and GSEA. The arrangement: RFU PODN (11730768_x_at) / Fold change /veh PODN (11730768_x_at) / RFU LINC00158 (11744669_a_at) / Fold change /veh LINC00158 (11744669_a_at) / RFU DUSP10 (11751237_a_at) / Fold change /veh DUSP10 (11751237_a_at) / RFU ID3 (11757404_x_at) / Fold change /veh ID3 (11757404_x_at) / RFU PLEKHG5 (11737974_s_at) / Fold change /veh PLEKHG5 (11737974_s_at) / RFU LRRC4B (11730491_at) / Fold change /veh LRRC4B (11730491_at) / RFU GIMAP4 (11747438_a_at) / Fold change /veh GIMAP4 (11747438_a_at) / RFU KRT8 (11758183_x_at) / Fold change /veh KRT8 (11758183_x_at) / RFU CNN1 (11734310_a_at) / Fold change /veh CNN1 (11734310_a_at) / RFU VPS37D (11726825_at) / Fold change /veh VPS37D (11726825_at) / RFU C10orf10 (11716522_x_at) / Fold change /veh C10orf10 (11716522_x_at) / RFU KIR2DL2 /// KIR2DL4 /// KIR2DL5A /// KIR2DL5B /// KIR2DS1 /// KIR2DS2 /// KIR2DS3 /// KIR2DS4 /// KIR3DL3 /// KIR3DL3 /// KIR3DS1 (11738374_at) / Fold change /veh KIR2DL2 /// KIR2DL4 /// KIR2DL5A /// KIR2DL5B /// KIR2DS1 /// KIR2DS2 /// KIR2DS3 /// KIR2DS4 /// KIR3DL3 /// KIR3DL3 /// KIR3DS1 (11738374_at) / RFU C1QL1 (11718748_at) / Fold change /veh C1QL1 (11718748_at) / RFU TMPRSS4 (11747572_a_at) / Fold change /veh TMPRSS4 (11747572_a_at) / RFU HAMP (11756126_x_at) / Fold change /veh HAMP (11756126_x_at) / RFU RNFT2 (11725882_a_at) / Fold change /veh RNFT2 (11725882_a_at) / RFU NR4A2 (11747474_a_at) / Fold change /veh NR4A2 (11747474_a_at) / RFU ABCC12 (11746883_a_at) / Fold change /veh ABCC12 (11746883_a_at) / RFU TMEM136 (11760407_x_at) / Fold change /veh TMEM136 (11760407_x_at) / RFU CLDN22 /// WWC2 (11732394_at) / Fold change /veh CLDN22 /// WWC2 (11732394_at) / RFU HLA-DPB1 (11760878_x_at) / Fold change /veh HLA-DPB1 (11760878_x_at) / RFU SPINT1 (11716480_a_at) / Fold change /veh SPINT1 (11716480_a_at) / RFU GAP43 (11754022_s_at) / Fold change /veh GAP43 (11754022_s_at) / RFU A4GNT (11735810_at) / Fold change /veh A4GNT (11735810_at) / RFU PRB3 (11715151_x_at) / Fold change /veh PRB3 (11715151_x_at) / RFU TUBB4B (11761932_at) / Fold change /veh TUBB4B (11761932_at) / RFU CAPN14 (11732068_a_at) / Fold change /veh CAPN14 (11732068_a_at) / RFU TMCC2 (11721928_a_at) / Fold change /veh TMCC2 (11721928_a_at) / RFU IRGQ (11745062_a_at) / Fold change /veh IRGQ (11745062_a_at) / RFU FAM174B (11720279_a_at) / Fold change /veh FAM174B (11720279_a_at) / RFU TMPRSS4 (11748680_a_at) / Fold change /veh TMPRSS4 (11748680_a_at) / RFU FAM212B (11763350_a_at) / Fold change /veh FAM212B (11763350_a_at) / RFU PLEKHG5 (11743358_a_at) / Fold change /veh PLEKHG5 (11743358_a_at) / RFU ZSCAN30 (11745921_a_at) / Fold change /veh ZSCAN30 (11745921_a_at) / RFU CMKLR1 (11741424_a_at) / Fold change /veh CMKLR1 (11741424_a_at) / RFU LOC101060620 /// MAPK8IP1 (11723275_at) / Fold change /veh LOC101060620 /// MAPK8IP1 (11723275_at) / RFU SPTSSB (11747773_x_at) / Fold change /veh SPTSSB (11747773_x_at) / RFU PRSS12 (11739890_at) / Fold change /veh PRSS12 (11739890_at) / RFU BIN1 (11741810_x_at) / Fold change /veh BIN1 (11741810_x_at) / RFU WNT11 (11732464_a_at) / Fold change /veh WNT11 (11732464_a_at) / RFU C10orf10 (11716521_a_at) / Fold change /veh C10orf10 (11716521_a_at) / RFU C5orf56 (11738089_at) / Fold change /veh C5orf56 (11738089_at) / RFU CYB561 (11721691_x_at) / Fold change /veh CYB561 (11721691_x_at) / RFU ANKRD19P (11752326_a_at) / Fold change /veh ANKRD19P (11752326_a_at) / RFU OR2T12 /// OR2T33 /// OR2T8 (11738714_s_at) / Fold change /veh OR2T12 /// OR2T33 /// OR2T8 (11738714_s_at) / RFU VCAN (11748164_a_at) / Fold change /veh VCAN (11748164_a_at) / RFU JSRP1 (11732532_at) / Fold change /veh JSRP1 (11732532_at) / RFU KRTAP10-11 (11738290_x_at) / Fold change /veh KRTAP10-11 (11738290_x_at) / RFU MYO3A (11730013_a_at) / Fold change /veh MYO3A (11730013_a_at) / RFU EBF3 (11725865_a_at) / Fold change /veh EBF3 (11725865_a_at) / RFU CAMK2N1 (11719241_x_at) / Fold change /veh CAMK2N1 (11719241_x_at) / RFU C5orf56 (11738088_a_at) / Fold change /veh C5orf56 (11738088_a_at) / RFU OLFML3 (11715873_a_at) / Fold change /veh OLFML3 (11715873_a_at) / RFU LOC100653217 /// NTM (11731650_a_at) / Fold change /veh LOC100653217 /// NTM (11731650_a_at) / RFU MAPK11 (11762145_a_at) / Fold change /veh MAPK11 (11762145_a_at) / RFU FIZ1 (11724087_x_at) / Fold change /veh FIZ1 (11724087_x_at) / RFU OASL (11726364_x_at) / Fold change /veh OASL (11726364_x_at) / RFU SOX15 (11748057_x_at) / Fold change /veh SOX15 (11748057_x_at) / RFU CD79A (11719716_a_at) / Fold change /veh CD79A (11719716_a_at) / RFU HIST1H1D (11736915_at) / Fold change /veh HIST1H1D (11736915_at) / RFU CASKIN2 (11723855_a_at) / Fold change /veh CASKIN2 (11723855_a_at) / RFU LOC730098 (11760151_x_at) / Fold change /veh LOC730098 (11760151_x_at) / RFU OR4N2 (11742367_at) / Fold change /veh OR4N2 (11742367_at) / RFU PRRT2 (11749266_a_at) / Fold change /veh PRRT2 (11749266_a_at) / RFU SNX32 (11753110_a_at) / Fold change /veh SNX32 (11753110_a_at) / RFU CDHR5 (11726645_a_at) / Fold change /veh CDHR5 (11726645_a_at) / RFU RCAN1 (11760418_a_at) / Fold change /veh RCAN1 (11760418_a_at) / RFU FAM167A (11723789_a_at) / Fold change /veh FAM167A (11723789_a_at) / RFU FAM26E (11764081_at) / Fold change /veh FAM26E (11764081_at) / RFU ISYNA1 (11749810_s_at) / Fold change /veh ISYNA1 (11749810_s_at) / RFU ACY1 (11761880_at) / Fold change /veh ACY1 (11761880_at) / RFU 11764098_at / Fold change /veh 11764098_at / RFU SAMD14 (11745864_x_at) / Fold change /veh SAMD14 (11745864_x_at) / RFU NPB (11741838_a_at) / Fold change /veh NPB (11741838_a_at) / RFU TMPRSS6 (11731388_a_at) / Fold change /veh TMPRSS6 (11731388_a_at) / RFU KRTAP10-2 (11738614_at) / Fold change /veh KRTAP10-2 (11738614_at) / RFU ARHGAP8 /// PRR5-ARHGAP8 (11727945_x_at) / Fold change /veh ARHGAP8 /// PRR5-ARHGAP8 (11727945_x_at) / RFU KRTAP5-7 /// NADSYN1 (11734609_at) / Fold change /veh KRTAP5-7 /// NADSYN1 (11734609_at) / RFU RASL12 (11751679_a_at) / Fold change /veh RASL12 (11751679_a_at) / RFU CDKN2B (11736163_a_at) / Fold change /veh CDKN2B (11736163_a_at) / RFU PRF1 (11729649_at) / Fold change /veh PRF1 (11729649_at) / RFU, ZNF638 /// ZNF638-IT1 / Fold change vs veh, ZNF638 /// ZNF638-IT1 / RFU, PANK3 / Fold change vs veh, PANK3 / RFU, SH3YL1 / Fold change vs veh, SH3YL1 / RFU, ZEB2 / Fold change vs veh, ZEB2 / RFU, NRIP1 / Fold change vs veh, NRIP1 / RFU, PTTG1IP / Fold change vs veh, PTTG1IP / RFU, CAPN2 / Fold change vs veh, CAPN2 / RFU, MED14 / Fold change vs veh, MED14 / RFU, SNORA58 / Fold change vs veh, SNORA58 / RFU, C1orf63 / Fold change vs veh, C1orf63 / RFU, LRRFIP1 / Fold change vs veh, LRRFIP1 / RFU, NDUFAF7 / Fold change vs veh, NDUFAF7 / RFU, SLC12A2 / Fold change vs veh, SLC12A2 / RFU, IBTK / Fold change vs veh, IBTK / RFU, ESF1 / Fold change vs veh, ESF1 / Fold change vs veh, TMEM50B / RFU, TAOK1 / Fold change vs veh, TAOK1 / RFU, ACBD3 / Fold change vs veh, ACBD3 / RFU, TMA16 / Fold change vs veh, TMA16 / RFU, RWDD3 / Fold change vs veh, RWDD3 / RFU, BCAT1 / Fold change vs veh, BCAT1 / RFU, EDEM3 / Fold change vs veh, EDEM3 / RFU, TMEM33 / Fold change vs veh, TMEM33 / RFU, WDR75 / Fold change vs veh, WDR75 / RFU, AHCTF1 / Fold change vs veh, AHCTF1 / RFU, TFRC / Fold change vs veh, TFRC / RFU, ZDHHC17 / Fold change vs veh, ZDHHC17 / RFU, NOM1 / Fold change vs veh, NOM1 / RFU, ARL8B / Fold change vs veh, ARL8B / RFU, ZBTB11 / Fold change vs veh, ZBTB11 / RFU, TAMM41 / Fold change vs veh, TAMM41 / RFU, KIAA1704 /// LOC100996395 / Fold change vs veh, KIAA1704 /// LOC100996395 / RFU, ING1 / Fold change vs veh, ING1 / RFU, TRMT61B / Fold change vs veh, TRMT61B / RFU, FUBP3 / Fold change vs veh, FUBP3 / RFU, TP53 / Fold change vs veh, TP53 / RFU, TNKS2 / Fold change vs veh, TNKS2 / RFU, ZFP14 / Fold change vs veh, ZFP14 / RFU, ACTR2 / Fold change vs veh, ACTR2 / RFU, PPP3R1 / Fold change vs veh, PPP3R1 / RFU, PIK3R1 / Fold change vs veh, PIK3R1 / RFU, HNRNPA1 / Fold change vs veh, HNRNPA1 / RFU, RNF170 / Fold change vs veh, RNF170 / RFU, ZNF28 / Fold change vs veh, ZNF28 / RFU, RNGTT / Fold change vs veh, RNGTT / RFU, OGT / Fold change vs veh, OGT / RFU, BRD1 / Fold change vs veh, BRD1 / RFU, MARS / Fold change vs veh, MARS / RFU, ZNF655 / Fold change vs veh, ZNF655 / RFU, FAHD1 / Fold change vs veh, FAHD1 / RFU, BDP1 / Fold change vs veh, BDP1 / RFU, LRRCC1 / Fold change vs veh, LRRCC1 / RFU, ARID1A / Fold change vs veh, ARID1A / RFU, ZNF146 / Fold change vs veh, ZNF146 / RFU, ZNF330 / Fold change vs veh, ZNF330 / RFU, GPN3 / Fold change vs veh, GPN3 / RFU, C9orf123 / Fold change vs veh, C9orf123 / RFU, N4BP2L2 / Fold change vs veh, N4BP2L2 / RFU, ARFIP1 / Fold change vs veh, ARFIP1 / RFU, FAM179B / Fold change vs veh, FAM179B / RFU, BCL10 / Fold change vs veh, BCL10 / RFU, UHRF1BP1L / Fold change vs veh, UHRF1BP1L / RFU, BET1 / Fold change vs veh, BET1 / RFU, CNOT2 / Fold change vs veh, CNOT2 / RFU, ZNF268 / Fold change vs veh, ZNF268 / Fold change vs veh, ZNF507 / RFU, DGCR2 / Fold change vs veh, DGCR2 / RFU, WDSUB1 / Fold change vs veh, WDSUB1 / Fold change vs veh, HSP90B1 /// MIR3652 / RFU, ADSS / Fold change vs veh, ADSS / RFU, GK / Fold change vs veh, GK / RFU, ZNF148 / Fold change vs veh, ZNF148 / RFU, TAF9 / Fold change vs veh, TAF9 / RFU, SLC1A5 / Fold change vs veh, SLC1A5 / RFU, SLMO2 / Fold change vs veh, SLMO2 / RFU, ABCC4 / Fold change vs veh, ABCC4 / RFU, LOC101060439 /// RAP1B / Fold change vs veh, LOC101060439 /// RAP1B / RFU, RFX7 / Fold change vs veh, RFX7 / RFU, GTPBP10 / Fold change vs veh, GTPBP10 / RFU, CNEP1R1 / Fold change vs veh, CNEP1R1 / RFU, BIVM-ERCC5 /// ERCC5 / Fold change vs veh, BIVM-ERCC5 /// ERCC5 / RFU, ILF3 / Fold change vs veh, ILF3 / RFU 11762660_at / Fold change /veh 11762660_at / RFU VCAN (11757783_s_at) / Fold change /veh VCAN (11757783_s_at) / RFU DDX43 (11728927_at) / Fold change /veh DDX43 (11728927_at) / RFU KRT8 (11758188_x_at) / Fold change /veh KRT8 (11758188_x_at) / RFU NKD1 (11759106_at) / Fold change /veh NKD1 (11759106_at) / RFU SRD5A1 (11742802_a_at) / Fold change /veh SRD5A1 (11742802_a_at) / RFU TPSAB1 /// TPSB2 (11721975_s_at) / Fold change /veh TPSAB1 /// TPSB2 (11721975_s_at) / RFU GSTM3 (11746129_a_at) / Fold change /veh GSTM3 (11746129_a_at) / RFU IL23R (11737362_x_at) / Fold change /veh IL23R (11737362_x_at) / RFU TMEM51 (11727254_a_at) / Fold change /veh TMEM51 (11727254_a_at) / RFU PIWIL2 (11732686_x_at) / Fold change /veh PIWIL2 (11732686_x_at) / RFU ORM1 (11744905_x_at) / Fold change /veh ORM1 (11744905_x_at) / RFU CCDC152 (11743942_at) / Fold change /veh CCDC152 (11743942_at) / RFU ECM1 (11717891_a_at) / Fold change /veh ECM1 (11717891_a_at) / RFU IL23R (11748794_a_at) / Fold change /veh IL23R (11748794_a_at) / RFU TNFAIP8L3 (11732012_x_at) / Fold change /veh TNFAIP8L3 (11732012_x_at) / RFU MBOAT4 (11741988_at) / Fold change /veh MBOAT4 (11741988_at) / RFU 11764193_at / Fold change /veh 11764193_at / RFU TMEM53 (11763286_at) / Fold change /veh TMEM53 (11763286_at) / RFU MAGEB2 (11727129_at) / Fold change /veh MAGEB2 (11727129_at) / RFU TMEM200A (11744735_a_at) / Fold change /veh TMEM200A (11744735_a_at) / RFU CCDC152 (11751479_a_at) / Fold change /veh CCDC152 (11751479_a_at) / RFU FAM211A (11726209_a_at) / Fold change /veh FAM211A (11726209_a_at) / RFU RGS16 (11746705_a_at) / Fold change /veh RGS16 (11746705_a_at) / RFU VCAN (11755009_s_at) / Fold change /veh VCAN (11755009_s_at) / RFU RHOB (11743442_s_at) / Fold change /veh RHOB (11743442_s_at) / RFU RGS16 (11720943_a_at) / Fold change /veh RGS16 (11720943_a_at) / RFU RGS16 (11720944_at) / Fold change /veh RGS16 (11720944_at) / RFU, VPS4B / Fold change vs veh, VPS4B / RFU, CREB1 / Fold change vs veh, CREB1 / RFU, DNAJC13 / Fold change vs veh, DNAJC13 / RFU, GNAQ / Fold change vs veh, GNAQ / RFU, CDK5R1 / Fold change vs veh, CDK5R1 / RFU, ZRANB3 / Fold change vs veh, ZRANB3 / RFU, CUL4A / Fold change vs veh, CUL4A / RFU, CCNY / Fold change vs veh, CCNY / RFU, UFL1 / Fold change vs veh, UFL1 / RFU, COG3 / Fold change vs veh, COG3 / RFU, DIAPH2 / Fold change vs veh, DIAPH2 / RFU, SKA2 / Fold change vs veh, SKA2 / RFU, AFF3 / Fold change vs veh, AFF3 / RFU, LMF1 / Fold change vs veh, LMF1 / RFU, IPO11 / Fold change vs veh, IPO11 / RFU, DFFB / Fold change vs veh, DFFB / RFU, FOXP1 / Fold change vs veh, FOXP1 / RFU, CARD8 / Fold change vs veh, CARD8 / RFU, STRN3 / Fold change vs veh, STRN3 / RFU, ADK / Fold change vs veh, ADK / RFU, RASSF2 / Fold change vs veh, RASSF2 / RFU, WIPF1 / Fold change vs veh, WIPF1 / RFU, LARP1B / Fold change vs veh, LARP1B / RFU, RASA1 / Fold change vs veh, RASA1 / RFU, RB1 / Fold change vs veh, RB1 / RFU, PPFIA1 / Fold change vs veh, PPFIA1 / RFU, MAT2A / Fold change vs veh, MAT2A / RFU, CCT5 / Fold change vs veh, CCT5 / RFU, WDR92 / Fold change vs veh, WDR92 / RFU, CUX1 / Fold change vs veh, CUX1 / RFU, TTC7A / Fold change vs veh, TTC7A / RFU, TMEM135 / Fold change vs veh, TMEM135 / RFU, DEPTOR / Fold change vs veh, DEPTOR / RFU, CPM / Fold change vs veh, CPM / RFU, DNAJB6 / Fold change vs veh, DNAJB6 / RFU, CACNA2D3 / Fold change vs veh, CACNA2D3 / RFU, DTX4 / Fold change vs veh, DTX4 / RFU, TFCP2 / Fold change vs veh, TFCP2 / RFU, GMCL1 /// GMCL1P1 / Fold change vs veh, GMCL1 /// GMCL1P1 / RFU, AEBP2 / Fold change vs veh, AEBP2 / RFU, SNHG1 /// SNORD22 /// SNORD25 /// SNORD26 /// SNORD27 /// SNORD28 /// SNORD29 /// SNORD31 / Fold change vs veh, SNHG1 /// SNORD22 /// SNORD25 /// SNORD26 /// SNORD27 /// SNORD28 /// SNORD29 /// SNORD31 / Fold change (Aza/veh), C12orf56 (ProbeSet 11735607_a_at) / Fold change (ACY-1035/veh), C12orf56 (ProbeSet 11735607_a_at) / Fold change (Aza/veh), FGFR1OP (ProbeSet 11751329_s_at) / Fold change (ACY-1035/veh), FGFR1OP (ProbeSet 11751329_s_at) / Fold change (Aza/veh), VPS36 (ProbeSet 11739960_a_at) / Fold change (ACY-1035/veh), VPS36 (ProbeSet 11739960_a_at) / RFU SYPL1 (11715823_x_at) / Fold change /veh SYPL1 (11715823_x_at) / RFU IGFBP7 (11715501_s_at) / Fold change /veh IGFBP7 (11715501_s_at) / RFU REEP3 (11722064_at) / Fold change /veh REEP3 (11722064_at) / RFU IGLL1 (11728026_x_at) / Fold change /veh IGLL1 (11728026_x_at): dose or concentration left out as unconfirmed. In kind it is cell-based, human. The settings on record: ProbeSet 11724763_s_at; LIST D.

In the case of `Nc1ncn([C@@H]2O[C@H](CO)[C@@H](O)[C@H]2O)c(=O)n1` [azacitidine], the “Fold change vs veh, DEPTOR” value amounted to 0.65.
